The values that follow come from BindingDB's records for doi:10.7270/Q25H7DQC (Nmmlsc, 2009).

pEC50: −log10 of the molar value.

A word on the pEC50: it is the EC50 on a negative log10 scale, so that one unit is a factor of ten. High values mean a low EC50, low ones a high EC50.

The assay concerns the target Ras-related protein Rab-2A (Canis lupus familiaris, UniProt P61105). Nature of the assay: fluorescent GTP competition at wildtype Rab2A – biochemical, multiplex dose response, Bodipy-FL-GTP, flow cytometry, SAR follow-up (AID 2033). (Flow cytometry measures light scatter and fluorescence of single cells or particles in a stream.)
The mark [1] stands for this setting: inactive by the depositor's call.

Chain of Ras-related protein Rab-2A (P61105 whole entry): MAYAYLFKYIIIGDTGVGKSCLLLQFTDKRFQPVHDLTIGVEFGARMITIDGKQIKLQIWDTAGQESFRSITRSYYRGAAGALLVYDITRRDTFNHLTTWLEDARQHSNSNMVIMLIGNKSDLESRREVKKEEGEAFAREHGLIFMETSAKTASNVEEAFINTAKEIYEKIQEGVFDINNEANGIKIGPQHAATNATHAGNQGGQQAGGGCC

Under setting [1], `Cc1ccc(C)c(N2CCN(C(=O)CCc3nc(-c4ccc(F)cc4)no3)CC2)c1` [KUC103364N] gave a pEC50 of 6.47.

Turning to `COc1ccc(-c2noc(CCC(=O)N3CCN(c4ccc(Cl)cc4)CC3)n2)cc1` [UNM-0000306121], the pEC50 was below 4.52.

As for `Cc1ccc(-c2noc(CCC(=O)N3CCN(c4cc(C)ccc4C)CC3)n2)cc1` [1-[4-(2,5-dimethylphenyl)-1-piperazinyl]-3-[3-(4-methylphenyl)-1,2,4-oxadiazol-5-yl]-1-propanone], the pEC50 under setting [1] is 5.38. Under setting [1], `COc1ccc(-c2noc(CCC(=O)N3CCN(c4ccccc4C)CC3)n2)cc1` gave a pEC50 of 5.59.

Turning to `COc1ccc(-c2noc(CCCC(=O)N3CCN(c4cc(C)ccc4C)CC3)n2)cc1` [KUC103353N], the pEC50 under setting [1] is 4.79. Still for that read-out and setting: as for `COc1ccc(-c2noc(CCC(=O)N3CCN(c4ccccc4Br)CC3)n2)cc1` [KUC103370N], the figure is 5.49; as for `Cc1ccc(C)c(N2CCN(C(=O)CCc3nc(-c4ccccc4)no3)CC2)c1` [UNM-0000306070], 6.08.

`Cc1ccc(C)c(N2CCN(C(=O)CCc3nc(-c4ccccc4F)no3)CC2)c1` [KUC103401N] showed a pEC50 under setting [1] of 6.04. Still for that read-out and setting: as for `COc1ccc(-c2noc(CCC(=O)N3CCN(c4cc(C)ccc4C)CC3)n2)cc1` [1-[4-(2,5-dimethylphenyl)-1-piperazinyl]-3-[3-(4-methoxyphenyl)-1,2,4-oxadiazol-5-yl]-1-propanone], the figure is 5.60.

Regarding `COc1ccc(-c2noc(CC(=O)N3CCN(c4cc(C)ccc4C)CC3)n2)cc1` [1-[4-(2,5-dimethylphenyl)piperazin-1-yl]-2-[3-(4-methoxyphenyl)-1,2,4-oxadiazol-5-yl]ethanone], the pEC50 is below 4.52. `COc1ccc(-c2noc(CCC(=O)N3CCN(c4ccc(F)cc4)CC3)n2)cc1` [KUC103398N]: the pEC50 is below 4.52.

Consider `COc1ccc(-c2cc(CCC(=O)N3CCN(c4cc(C)ccc4C)CC3)[nH]n2)cc1` [UNM-0000306150], for which the pEC50 was below 4.52. `Cc1ccc(C)c(N2CCN(C(=O)CCc3nc(-c4ccccc4C)no3)CC2)c1` gave a pEC50 under setting [1] of 5.78. Same read-out and setting: the value for `Cc1ccc(C)c(N2CCN(C(=O)CCc3nc(-c4ccc(Cl)cc4)no3)CC2)c1` [UNM-0000306083] was 5.75; that for `Cc1ccc(C)c(N2CCN(C(=O)CCc3nc(-c4ccccc4Br)no3)CC2)c1` [3-[3-(2-bromophenyl)-1,2,4-oxadiazol-5-yl]-1-[4-(2,5-dimethylphenyl)-1-piperazinyl]-1-propanone] was 5.50.

With `COc1ccc(-c2noc(CCC(=O)N3CCN(c4ccccc4F)CC3)n2)cc1` [1-[4-(2-fluorophenyl)piperazin-1-yl]-3-[3-(4-methoxyphenyl)-1,2,4-oxadiazol-5-yl]propan-1-one], the pEC50 under setting [1] is 6.13. For `COc1ccc(-c2noc(CCC(=O)N3CCN(c4ccc(OC)cc4)CC3)n2)cc1` [3-[3-(4-methoxyphenyl)-1,2,4-oxadiazol-5-yl]-1-[4-(4-methoxyphenyl)piperazin-1-yl]propan-1-one], the pEC50 is below 4.52. Compound `COc1ccc(-c2noc(CCC(=O)N3CCN(c4ccccc4OC)CC3)n2)cc1` [3-[3-(4-methoxyphenyl)-1,2,4-oxadiazol-5-yl]-1-[4-(2-methoxyphenyl)-1-piperazinyl]-1-propanone] had a pEC50 under setting [1] of 5.88.

As for `Cc1ccc(C)c(N2CCN(C(=O)CCc3nc(-c4cccc(Br)c4)no3)CC2)c1` [KUC103367N], under setting [1], the pEC50 was 5.44. Turning to `COc1ccc(-c2noc(CCCCC(=O)N3CCN(c4cc(C)ccc4C)CC3)n2)cc1` [1-[4-(2,5-dimethylphenyl)-1-piperazinyl]-5-[3-(4-methoxyphenyl)-1,2,4-oxadiazol-5-yl]-1-pentanone], the pEC50 was below 4.52. For `COc1ccc(-c2ccc(CCC(=O)N3CCN(c4cc(C)ccc4C)CC3)s2)cc1`, the pEC50 under setting [1] is 5.61. Take `Cc1ccc(C)c(N2CCN(C(=O)CCc3nc(-c4ccc(C(F)(F)F)cc4)no3)CC2)c1` [1-[4-(2,5-dimethylphenyl)-1-piperazinyl]-3-[3-[4-(trifluoromethyl)phenyl]-1,2,4-oxadiazol-5-yl]-1-propanone]: the pEC50 is below 4.52.

Regarding `Cc1ccc(C)c(N2CCN(C(=O)CCc3nc(-c4cccc(Cl)c4)no3)CC2)c1` [UNM-0000306086], the pEC50 under setting [1] is 5.54. In the case of `Cc1ccc(C)c(N2CCN(C(=O)CCc3nc(-c4ccccc4Cl)no3)CC2)c1` [3-[3-(2-chlorophenyl)-1,2,4-oxadiazol-5-yl]-1-[4-(2,5-dimethylphenyl)-1-piperazinyl]-1-propanone], the pEC50 is below 4.52. Same read-out and setting: as for `COc1ccccc1-c1noc(CCC(=O)N2CCN(c3cc(C)ccc3C)CC2)n1` [UNM-0000306071], the figure is below 4.52. Under setting [1], `Cc1cccc(-c2noc(CCC(=O)N3CCN(c4cc(C)ccc4C)CC3)n2)c1` [1-[4-(2,5-dimethylphenyl)piperazin-1-yl]-3-[3-(3-methylphenyl)-1,2,4-oxadiazol-5-yl]propan-1-one] showed a pEC50 of 5.88. As to `COc1ccc(-c2noc(CCC(=O)N3CCN(c4cccc(F)c4)CC3)n2)cc1` [1-[4-(3-fluorophenyl)piperazin-1-yl]-3-[3-(4-methoxyphenyl)-1,2,4-oxadiazol-5-yl]propan-1-one], the pEC50 was below 4.52. With `COc1cccc(-c2noc(CCC(=O)N3CCN(c4cc(C)ccc4C)CC3)n2)c1`, the pEC50 under setting [1] is 5.41. On the same count and under the same terms, as for `COc1ccc(-c2noc(CCC(=O)N3CCN(c4cccc(OC)c4)CC3)n2)cc1` [KUC103349N], the figure is 5.19. On to `Cc1ccc(C)c(N2CCN(C(=O)CCc3nc(-c4ccccc4C(F)(F)F)no3)CC2)c1`, for which the pEC50 was below 4.52.

In turn, `COc1ccc(-c2noc(CCC(=O)N3CCN(c4cccc(C(F)(F)F)c4)CC3)n2)cc1` [1-{3-[3-(4-methoxyphenyl)-1,2,4-oxadiazol-5-yl]propanoyl}-4-[3-(trifluoromethyl)phenyl]piperazine] had a pEC50 below 4.52. As for `COc1ccc(-c2ccc(CCC(=O)N3CCN(c4cc(C)ccc4C)CC3)o2)cc1` [KUC103447N], the pEC50 under setting [1] was 4.82. Same read-out and setting: the value for `COc1ccc(-c2noc(CCC(=O)N3CCN(c4ccccc4C(F)(F)F)CC3)n2)cc1` [UNM-0000306082] was 5.68.

Consider `COc1ccc(-c2noc(CCC(=O)N3CCN(c4ccccc4)CC3)n2)cc1` [3-[3-(4-methoxyphenyl)-1,2,4-oxadiazol-5-yl]-1-(4-phenylpiperazin-1-yl)propan-1-one], for which the pEC50 is below 4.52. The same measure, in the same setting: as for `Cc1ccc(C)c(N2CCN(C(=O)CCc3nc(-c4ccc(N(C)C)cc4)no3)CC2)c1` [KUC103409N], the figure is below 4.52. Consider `COc1ccc(-c2noc(CCC(=O)N3CCC(c4cc(C)ccc4C)CC3)n2)cc1` [KUC103432N], for which the pEC50 under setting [1] is 5.60. Still for that read-out and setting: the value for `COc1ccc(-c2noc(CCC(=O)N3CCN(c4cccc(C)c4C)CC3)n2)cc1` [1-[4-(2,3-dimethylphenyl)-1-piperazinyl]-3-[3-(4-methoxyphenyl)-1,2,4-oxadiazol-5-yl]-1-propanone] was 5.64. Regarding `Cc1ccc(C)c(N2CCN(C(=O)CCc3nc(-c4cccc(C(F)(F)F)c4)no3)CC2)c1` [KUC103380N], the pEC50 is below 4.52. On the same count and under the same terms, the value for `COc1ccc(-c2coc(CCC(=O)N3CCN(c4cc(C)ccc4C)CC3)n2)cc1` [1-[4-(2,5-dimethylphenyl)piperazin-1-yl]-3-[4-(4-methoxyphenyl)-1,3-oxazol-2-yl]propan-1-one] was below 4.52.

Under setting [1], `COc1ccc(-c2noc(CCC(=O)N3CCN(c4cccc(Cl)c4)CC3)n2)cc1` gave a pEC50 of 5.07.

Under setting [1], `COc1ccc(-c2noc(CCC(=O)N3CCN(c4ccccc4Cl)CC3)n2)cc1` [1-[4-(2-chlorophenyl)piperazin-1-yl]-3-[3-(4-methoxyphenyl)-1,2,4-oxadiazol-5-yl]propan-1-one] showed a pEC50 of 5.62.

For the compound `Cc1ccc(C)c(N2CCN(C(=O)CCc3nc(-c4ccc(Br)cc4)no3)CC2)c1` [UNM-0000306072], the pEC50 under setting [1] is 5.53. `COc1ccc(-c2noc(CCC(=O)N3CCN(c4cccc(C)c4)CC3)n2)cc1` [UNM-0000306125] had a pEC50 below 4.52. Still for that read-out and setting: as for `COc1ccc(-c2cccc(CCC(=O)N3CCN(c4cc(C)ccc4C)CC3)c2)cc1` [UNM-0000306127], the figure is below 4.52.

For `COc1ccc(-c2cc(CCC(=O)N3CCN(c4cc(C)ccc4C)CC3)on2)cc1` [1-[4-(2,5-dimethylphenyl)piperazin-1-yl]-3-[3-(4-methoxyphenyl)-1,2-oxazol-5-yl]propan-1-one], the pEC50 under setting [1] was 5.60. As to `Cc1ccc(C)c(N2CCN(C(=O)CCc3nc(-c4cccc(F)c4)no3)CC2)c1` [KUC103366N], the pEC50 is below 4.52. In turn, `COc1ccc(-c2ccc(CCC(=O)N3CCN(c4cc(C)ccc4C)CC3)[nH]2)cc1` [1-[4-(2,5-dimethylphenyl)piperazin-1-yl]-3-[5-(4-methoxyphenyl)-1H-pyrrol-2-yl]propan-1-one] gave a pEC50 under setting [1] of 5.28.

`COc1ccc(-c2noc(CCC(=O)N3CCN(c4cccc(Br)c4)CC3)n2)cc1` [1-[4-(3-bromophenyl)-1-piperazinyl]-3-[3-(4-methoxyphenyl)-1,2,4-oxadiazol-5-yl]-1-propanone] gave a pEC50 below 4.52.

`COc1ccc(-c2noc(CCC(=O)N3CCN(c4ccc(C)cc4)CC3)n2)cc1` [3-[3-(4-methoxyphenyl)-1,2,4-oxadiazol-5-yl]-1-[4-(4-methylphenyl)piperazin-1-yl]propan-1-one] gave a pEC50 under setting [1] of 6.15. Take `COc1ccc(-c2noc(CCC(=O)N3CCN(c4ccc(Br)cc4)CC3)n2)cc1` [1-[4-(4-bromophenyl)piperazin-1-yl]-3-[3-(4-methoxyphenyl)-1,2,4-oxadiazol-5-yl]propan-1-one]: the pEC50 was below 4.52. Compound `COc1ccc(-c2noc(CCC(=O)N3CCN(c4ccc(C(F)(F)F)cc4)CC3)n2)cc1` [3-[3-(4-methoxyphenyl)-1,2,4-oxadiazol-5-yl]-1-[4-[4-(trifluoromethyl)phenyl]piperazin-1-yl]propan-1-one] gave a pEC50 below 4.52.
